# ChEMBL document CHEMBL5365497, “Developing Novel Coumarin-Containing Azoles Antifungal Agents by the Scaffold Merging Strategy for Treating Azole-Resistant Candidiasis” (J Med Chem, 2023)
# Activity calls are given as the source filed them. The rule behind the calls is not given here.
# Tests used:
# Candida albicans [1] = experiment: Antifungal activity against Candida albicans CPCC400616 assessed as fungal growth inhibition by CLSI based microdilution method; type: functional
# Cytochrome P450 2D6 = Cytochrome P450 2D6 (Homo sapiens, UniProt P10635); experiment: Inhibition of CYP2D6 in human liver microsomes using dextromethorphan as substrate preincubated for 5 mins followed by NADPH addition by LC-MS/MS analysis; type: ADME, Microsome
# Cytochrome P450 2D6, sequence (P10635 whole entry): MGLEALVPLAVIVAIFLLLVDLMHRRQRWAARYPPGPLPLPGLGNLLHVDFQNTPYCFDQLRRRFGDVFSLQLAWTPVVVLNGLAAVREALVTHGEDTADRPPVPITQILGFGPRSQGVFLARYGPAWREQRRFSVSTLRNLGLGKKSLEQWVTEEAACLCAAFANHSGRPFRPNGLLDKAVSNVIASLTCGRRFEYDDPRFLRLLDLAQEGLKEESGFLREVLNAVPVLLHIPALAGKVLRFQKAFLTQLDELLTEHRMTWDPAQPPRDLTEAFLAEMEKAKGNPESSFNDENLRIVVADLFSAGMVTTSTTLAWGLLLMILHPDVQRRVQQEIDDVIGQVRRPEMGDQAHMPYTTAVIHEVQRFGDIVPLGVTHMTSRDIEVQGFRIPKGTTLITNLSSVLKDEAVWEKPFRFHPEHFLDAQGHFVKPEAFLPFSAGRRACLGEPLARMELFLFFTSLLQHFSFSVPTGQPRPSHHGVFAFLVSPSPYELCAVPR
# Cytochrome P450 1A2 = biological target: T1, Cytochrome P450 1A2 (Homo sapiens, UniProt P05177); experiment: Inhibition of CYP1A2 in human liver microsomes using phenacetin as substrate preincubated for 5 mins followed by NADPH addition by LC-MS/MS analysis; type: ADME, Microsome
# T1 sequence (P05177 whole entry): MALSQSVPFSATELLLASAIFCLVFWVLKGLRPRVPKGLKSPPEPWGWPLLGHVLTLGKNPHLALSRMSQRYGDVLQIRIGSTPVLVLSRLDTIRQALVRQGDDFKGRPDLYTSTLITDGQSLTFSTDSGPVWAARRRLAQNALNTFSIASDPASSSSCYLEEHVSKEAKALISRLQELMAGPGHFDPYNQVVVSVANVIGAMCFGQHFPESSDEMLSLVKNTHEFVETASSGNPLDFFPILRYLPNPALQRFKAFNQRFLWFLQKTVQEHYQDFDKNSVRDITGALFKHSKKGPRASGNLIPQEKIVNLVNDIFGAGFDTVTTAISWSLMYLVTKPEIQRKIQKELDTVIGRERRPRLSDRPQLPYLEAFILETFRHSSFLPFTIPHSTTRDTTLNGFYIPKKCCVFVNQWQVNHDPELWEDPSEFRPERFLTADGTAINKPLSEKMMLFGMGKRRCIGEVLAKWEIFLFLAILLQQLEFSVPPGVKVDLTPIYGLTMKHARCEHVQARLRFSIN
# Cytochrome P450 2C9 = Cytochrome P450 2C9 (Homo sapiens, UniProt P11712); experiment: Inhibition of CYP2C9 in human liver microsomes using diclofenac as substrate preincubated for 5 mins followed by NADPH addition by LC-MS/MS analysis; type: ADME, Microsome
# Cytochrome P450 2C9, sequence (P11712 whole entry): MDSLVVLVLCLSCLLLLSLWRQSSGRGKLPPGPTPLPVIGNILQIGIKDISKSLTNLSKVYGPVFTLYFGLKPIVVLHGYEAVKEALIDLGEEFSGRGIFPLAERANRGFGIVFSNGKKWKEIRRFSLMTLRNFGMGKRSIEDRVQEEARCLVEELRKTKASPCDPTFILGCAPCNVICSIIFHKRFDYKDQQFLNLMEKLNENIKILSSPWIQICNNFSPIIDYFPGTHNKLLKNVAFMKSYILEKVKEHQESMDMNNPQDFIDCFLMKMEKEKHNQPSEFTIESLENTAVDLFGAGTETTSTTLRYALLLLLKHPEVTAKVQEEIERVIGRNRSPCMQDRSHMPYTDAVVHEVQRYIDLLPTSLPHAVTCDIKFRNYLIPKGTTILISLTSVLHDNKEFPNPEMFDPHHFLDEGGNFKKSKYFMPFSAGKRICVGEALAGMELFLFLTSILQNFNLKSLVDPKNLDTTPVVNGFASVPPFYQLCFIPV
# Pichia kudriavzevii = experiment: Antifungal activity against Pichia kudriavzevii assessed as fungal growth inhibition by CLSI based microdilution method; type: functional
# [2] = Stability in mouse plasma assessed as compound remaining at 1 uM measured for 180 mins by LC-MS/MS analysis; type: ADME, cell-free; conditions: read-out: Stability
# Candida tropicalis = experiment: Antifungal activity against Candida tropicalis assessed as fungal growth inhibition by CLSI based microdilution method; type: functional
# Nakaseomyces glabratus = experiment: Antifungal activity against Candida glabrata assessed as fungal growth inhibition by CLSI based microdilution method; type: functional
# Candida parapsilosis = experiment: Antifungal activity against Candida parapsilosis assessed as fungal growth inhibition by CLSI based microdilution method; type: functional; conditions: Lodderomyces parapsilosis
# Candida albicans [3] = experiment: Antifungal activity against Candida albicans SC5314 assessed as fungal growth inhibition by CLSI based microdilution method; type: functional
# Cryptococcus neoformans = experiment: Antifungal activity against Cryptococcus neoformans assessed as fungal growth inhibition by CLSI based microdilution method; type: functional
# [4] = Stability in mouse plasma assessed as half life at 1 uM measured for 180 mins by LC-MS/MS analysis; type: ADME, cell-free
# [5] = Cytotoxicity against mouse J774.A1 cells assessed as cell growth inhibition by MTT assay; type: toxicity, cell-based
# Candida albicans [6] = experiment: Antifungal activity against fluconazole-resistant Candida albicans 904 assessed as inhibition of yeast to hypha morphological transition at 16 ug/ml incubated for 4 hrs by inverted microscopy; type: functional, organism-based; conditions: dose 16.0 µg/ml
# Candida albicans [7] = experiment: Antifungal activity against Candida albicans CPCC400616 assessed as reduction in ALS3 expression at 2 ug/ml incubated for 12 hrs by RT-PCR analysis; type: functional, organism-based; conditions: dose 2.0 µg/ml
# Candida albicans [8] = experiment: Antibiofilm activity against Candida albicans CPCC400616 incubated for 24 hrs by XTT reduction assay; type: functional, organism-based; conditions: dose <= 128.0 µg/ml
# Candida albicans [9] = experiment: Antifungal activity against Candida albicans CPCC400616 assessed as reduction in TEC1 expression at 2 ug/ml incubated for 12 hrs by RT-PCR analysis; type: functional, organism-based; conditions: dose 2.0 µg/ml
# Candida albicans [10] = experiment: Antifungal activity against fluconazole-resistant Candida albicans 904 assessed as reduction in CPH1 expression at 16 ug/ml incubated for 12 hrs by RT-PCR analysis; type: functional, organism-based; conditions: dose 16.0 µg/ml
# Candida albicans [11] = experiment: Antifungal activity against fluconazole-resistant Candida albicans 901 assessed as fungal growth inhibition by CLSI based microdilution method; type: functional
# Candida albicans [12] = experiment: Antifungal activity against Candida albicans CPCC400616 assessed as reduction in EFG1 expression at 2 ug/ml incubated for 12 hrs by RT-PCR analysis; type: functional, organism-based; conditions: dose 2.0 µg/ml
# Candida albicans [13] = experiment: Antifungal activity against fluconazole-resistant Candida albicans CaR assessed as fungal growth inhibition by CLSI based microdilution method; type: functional
# Candida albicans [14] = experiment: Induction of ROS production in fluconazole-resistant Candida albicans 904 at 64 ug/ml incubated for 30 mins by fluorescence microscopy; type: functional, organism-based; conditions: dose 64.0 µg/ml
# Candida albicans [15] = experiment: Antibiofilm activity against fluconazole-resistant Candida albicans 904 incubated for 24 hrs by XTT reduction assay; type: functional, organism-based; conditions: dose <= 128.0 µg/ml
# Candida albicans [16] = experiment: Antifungal activity against fluconazole-resistant Candida albicans 904 assessed as decrease in MDR1 expression at 16 ug/ml measured after 16 hrs by RT-PCR analysis; type: functional, organism-based; conditions: dose 16.0 µg/ml
# Candida albicans [17] = experiment: Antifungal activity against Candida albicans CPCC400616 assessed as reduction in CPH1 expression at 2 ug/ml incubated for 12 hrs by RT-PCR analysis; type: functional, organism-based; conditions: dose 2.0 µg/ml
# Candida albicans [18] = experiment: Antifungal activity against fluconazole-resistant Candida albicans 904 assessed as decrease in CDR2 expression at 16 ug/ml measured after 16 hrs by RT-PCR analysis; type: functional, organism-based; conditions: dose 16.0 µg/ml
# [19] = Metabolic stability in mouse liver microsomes assessed as half life incubated for 5 to 60 mins by LC-MS/MS analysis; type: ADME, Microsome; conditions: time 5-60 min
# Candida albicans [20] = experiment: Antifungal activity against fluconazole-resistant Candida albicans 904 assessed as fungal growth inhibition by CLSI based microdilution method; type: functional
# Candida albicans [21] = experiment: Antifungal activity against fluconazole-resistant Candida albicans 17# assessed as fungal growth inhibition by CLSI based microdilution method; type: functional
# [22] = biological target: T2, Lanosterol 14-alpha demethylase (Candida albicans (strain SC5314 / ATCC MYA-2876) (Yeast), UniProt P10613); experiment: Inhibition of CYP51 in Candida albicans SC5314 assessed as increase in eburicol level at 0.03125 ug/ml incubated for 24 hrs by GC-MS analysis; conditions: at 0.03125 µg/mL
# T2 sequence (P10613 whole entry): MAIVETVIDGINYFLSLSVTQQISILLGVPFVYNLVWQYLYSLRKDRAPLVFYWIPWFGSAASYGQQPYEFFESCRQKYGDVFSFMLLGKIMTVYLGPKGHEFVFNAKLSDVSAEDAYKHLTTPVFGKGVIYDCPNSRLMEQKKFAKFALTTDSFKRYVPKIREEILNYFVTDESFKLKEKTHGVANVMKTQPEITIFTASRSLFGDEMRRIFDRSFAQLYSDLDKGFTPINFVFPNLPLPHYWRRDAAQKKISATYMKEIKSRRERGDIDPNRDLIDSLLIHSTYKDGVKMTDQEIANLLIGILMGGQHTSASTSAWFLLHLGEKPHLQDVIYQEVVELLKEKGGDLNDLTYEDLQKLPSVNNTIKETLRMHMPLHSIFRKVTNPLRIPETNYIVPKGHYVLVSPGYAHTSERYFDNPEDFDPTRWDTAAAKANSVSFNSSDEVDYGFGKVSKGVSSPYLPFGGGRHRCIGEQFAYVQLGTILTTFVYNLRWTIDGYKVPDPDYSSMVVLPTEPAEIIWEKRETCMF
# Candida albicans [23] = experiment: Antifungal activity against fluconazole-resistant Candida albicans 904 assessed as decrease in ERG11 expression at 16 ug/ml measured after 16 hrs by RT-PCR analysis; type: functional, organism-based; conditions: dose 16.0 µg/ml
# Candida albicans [24] = experiment: Antifungal activity against fluconazole-resistant Candida albicans 904 assessed as decrease in CDR1 expression at 16 ug/ml measured after 16 hrs by RT-PCR analysis; type: functional, organism-based; conditions: dose 16.0 µg/ml
# [25] = biological target: T2, Lanosterol 14-alpha demethylase; experiment: Inhibition of CYP51 in Candida albicans SC5314 assessed as ergosterol level at 0.03125 ug/ml incubated for 24 hrs by GC-MS analysis (reference value: 97.58 %); design: scale not given: the % may be the effect or the level left; conditions: at 0.03125 µg/mL
# [26] = biological target: T2, Lanosterol 14-alpha demethylase; experiment: Inhibition of CYP51 in Candida albicans SC5314 assessed as increase in lanosterol level at 0.03125 ug/ml incubated for 24 hrs by GC-MS analysis; conditions: at 0.03125 µg/mL
# Candida albicans [27] = experiment: Antifungal activity against Candida albicans CPCC400616 assessed as inhibition of yeast to hypha morphological transition at 2 ug/ml incubated for 4 hrs by inverted microscopy; type: functional, organism-based; conditions: dose 2.0 µg/ml
# [28] = biological target: T2, Lanosterol 14-alpha demethylase; experiment: Inhibition of CYP51 in Candida albicans SC5314 assessed as increase in obtusifoliol level at 0.03125 ug/ml incubated for 24 hrs by GC-MS analysis; conditions: at 0.03125 µg/mL
# Candida albicans [29] = experiment: Antifungal activity against fluconazole-resistant Candida albicans 904 assessed as reduction in TEC1 expression at 16 ug/ml incubated for 12 hrs by RT-PCR analysis; type: functional, organism-based; conditions: dose 16.0 µg/ml
# Candida albicans [30] = experiment: Antifungal activity against fluconazole-resistant Candida albicans 632 assessed as fungal growth inhibition by CLSI based microdilution method; type: functional
# Candida albicans [31] = experiment: Antifungal activity against fluconazole-resistant Candida albicans 904 assessed as reduction in ALS3 expression at 16 ug/ml incubated for 12 hrs by RT-PCR analysis; type: functional, organism-based; conditions: dose 16.0 µg/ml
# Candida albicans [32] = experiment: Antifungal activity against fluconazole-resistant Candida albicans 904 assessed as reduction in EFG1 expression at 16 ug/ml incubated for 12 hrs by RT-PCR analysis; type: functional, organism-based; conditions: dose 16.0 µg/ml
compound,measurement,setting,value
Clc1ccc(COC(Cn2ccnc2)c2ccc(Cl)cc2Cl)c(Cl)c1 (centres undefined) [MICONAZOLE],MIC,Candida albicans [1],0.25 µg/mL
same,IC50,Cytochrome P450 2D6,0.875 µM
same,IC50,Cytochrome P450 1A2,2.62 µM
same,IC50,Cytochrome P450 2C9,0.115 µM
same,MIC,Pichia kudriavzevii,0.5 µg/mL
same,"remaining at 3 h, 1 µM",[2],94.9%
same,MIC,Candida tropicalis,1 µg/mL
same,MIC,Nakaseomyces glabratus,0.5 µg/mL
same,MIC,Candida parapsilosis,0.25 µg/mL
same,MIC,Candida albicans [3],0.03 µg/mL
same,MIC,Cryptococcus neoformans,0.25 µg/mL
same,half-life at 1 µM,[4],> 360 min
same,IC50,[5],22.2 µM
O=c1oc2ccccc2cc1COC(Cn1ccnc1)c1ccc(Cl)cc1Cl (centres undefined),inhibition,Candida albicans [6],Active
same,Activity,Candida albicans [7],Active
same,MIC,Candida albicans [1],0.06 µg/mL
same,Activity,Candida albicans [8],Dose-Dependent Effect
same,Activity,Candida albicans [9],Active
same,MIC,Pichia kudriavzevii,0.25 µg/mL
same,Activity,Candida albicans [10],Active
same,MIC,Candida albicans [11],4 µg/mL
same,Activity,Candida albicans [12],Active
same,MIC,Candida albicans [13],0.5 µg/mL
same,"remaining at 3 h, 1 µM",[2],2.2%
same,Activity,Candida albicans [14],Active
same,Activity,Candida albicans [15],Dose-Dependent Effect
same,Activity,Candida albicans [16],Active
same,Activity,Candida albicans [17],Active
same,Activity,Candida albicans [18],Active
same,half-life,[19],2.8 min
same,MIC,Candida albicans [20],2 µg/mL
same,MIC,Candida albicans [21],8 µg/mL
same,MIC,Candida tropicalis,0.5 µg/mL
same,inhibition (INH),[22],Active
same,MIC,Nakaseomyces glabratus,1 µg/mL
same,Activity,Candida albicans [23],Active
same,Activity,Candida albicans [24],Active
same,Activity,[25],16.17%
same,inhibition (INH),[26],Active
same,MIC,Candida parapsilosis,< 0.25 µg/mL
same,inhibition,Candida albicans [27],Active
same,inhibition (INH),[28],Active
same,Activity,Candida albicans [29],Active
same,MIC,Candida albicans [30],8 µg/mL
same,Activity,Candida albicans [31],Active
same,MIC,Candida albicans [3],0.03 µg/mL
same,MIC,Cryptococcus neoformans,0.015 µg/mL
same,Activity,Candida albicans [32],Active
same,half-life at 1 µM,[4],34 min
same,IC50,[5],24.4 µM
O=c1ccc2ccc(COC(Cn3ccnc3)c3ccc(F)cc3)cc2o1 (centres undefined),MIC,Candida albicans [1],2 µg/mL
same,MIC,Pichia kudriavzevii,32 µg/mL
same,MIC,Candida albicans [11],64 µg/mL
same,MIC,Candida albicans [13],128 µg/mL
same,MIC,Candida albicans [20],32 µg/mL
same,MIC,Candida albicans [21],128 µg/mL
same,MIC,Candida tropicalis,4 µg/mL
same,MIC,Nakaseomyces glabratus,64 µg/mL
same,MIC,Candida parapsilosis,16 µg/mL
same,MIC,Candida albicans [30],32 µg/mL
same,MIC,Candida albicans [3],0.5 µg/mL
same,MIC,Cryptococcus neoformans,4 µg/mL
O=c1ccc2ccccc2o1 [COUMARIN],MIC,Candida albicans [1],> 128 µg/mL
same,MIC,Pichia kudriavzevii,> 128 µg/mL
same,MIC,Candida albicans [11],> 128 µg/mL
same,MIC,Candida albicans [13],> 128 µg/mL
same,MIC,Candida albicans [20],> 128 µg/mL
same,MIC,Candida albicans [21],128 µg/mL
same,MIC,Candida tropicalis,> 128 µg/mL
same,MIC,Nakaseomyces glabratus,> 128 µg/mL
same,MIC,Candida parapsilosis,> 128 µg/mL
same,MIC,Candida albicans [30],> 128 µg/mL
same,MIC,Candida albicans [3],> 128 µg/mL
same,MIC,Cryptococcus neoformans,> 128 µg/mL
